Results on 70 molecules are retold here after ChEMBL document CHEMBL4043145, “Pyridine-pyrimidine amides that prevent HGF-induced epithelial scattering by two distinct mechanisms” (Bioorg Med Chem Lett, 2017).

Where only a bound is given, the exact number is not on record here.

In experiment [1] the test system is MDCK-II. Kind of experiment: Antimigratory activity against MDCK2 cells assessed as inhibition of HGF-induced cell scattering at 1 uM pretreated for 18 hrs followed by HGF addition measured after 20 to 24 hrs by crystal violet staining-based assay relative to control. The format is functional. The conditions noted are these: Canis lupus familiaris.
The subject of experiment [2] is MCF7. Kind of experiment: Antiproliferative activity against human MCF7 cells at 10 uM relative to control. The format is functional, cell-based.
Experiment [3] deals with A2780. Nature of the experiment: Antiproliferative activity against human A2780 cells. The format is functional, cell-based.

Take `Cc1nc(NC(=O)c2cnco2)ccc1I`: the inhibition at 1 µM in experiment [1] was 32%.

For the molecule `O=C(Nc1ccc(-c2ccco2)cn1)c1cncnc1`, the EC50 in experiment [2] stood at 0.605 µM; in experiment [3], 0.196 µM.

Regarding `Cc1nc(NC(=O)c2cnco2)ccc1Cl`, the inhibition at 1 µM in experiment [1] is -35%.

For `O=C(Nc1ccc(-c2ccccc2)cn1)c1ncccn1`, the EC50 in experiment [2] and in experiment [3] was greater than 10 µM throughout.

As for `Cc1nc(NC(=O)c2cccc(C(F)(F)F)c2)ccc1I`, the inhibition at 1 µM in experiment [1] stood at 72%.

For the molecule `O=C(Nc1ccc(-c2ccccc2)cn1)c1nccs1`, the inhibition at 1 µM in experiment [1] is -13%.

On to `Cc1nc(NC(=O)c2cncc([N+](=O)[O-])c2)ccc1I`, for which, in experiment [1], the inhibition at 1 µM was determined as 21%.

Consider `O=C(Nc1ccc(-c2cccnc2)cn1)c1cncnc1`, for which the EC50 was determined as 6.97 µM in experiment [2] and 5.92 µM in experiment [3].

With `Cc1nc(NC(=O)c2cccc([N+](=O)[O-])c2)cnc1Br`, the inhibition at 1 µM in experiment [1] is -33%.

As for `O=C(Nc1ncc(Br)cc1Br)c1cccc([N+](=O)[O-])c1`, in experiment [1], the inhibition at 1 µM came to 42.4%.

As for `Cc1nc(NC(=O)c2cccc([N+](=O)[O-])c2)ccc1Cl`, in experiment [1], the inhibition at 1 µM was -5%.

As for `O=C(Nc1ccc2ccccc2n1)c1nccs1`, in experiment [1], the inhibition at 1 µM was -51%.

Take `O=C(Nc1ccc2ccccc2n1)c1cccc([N+](=O)[O-])c1`: the inhibition at 1 µM in experiment [1] is -59%.

Take `Cc1nc(NC(=O)c2cncnc2)cnc1Br`: in experiment [1], the inhibition at 1 µM is -42%.

As for `O=C(Nc1cncnc1)c1ccc(-c2ccccc2)cn1`, the EC50 in experiment [2] and in experiment [3] was greater than 10 µM in each case.

For the molecule `O=C(Nc1ncc[nH]1)c1cccc(C(F)(F)F)c1`, in experiment [1], the inhibition at 1 µM was -72%.

On to `O=C(Nc1cnc(-c2ccccc2)cn1)c1cncnc1`, for which the EC50 in experiment [2] was 8.33 µM; in experiment [3], greater than 10 µM.

`CSc1ncncc1C(=O)Nc1ccc(-c2ccccc2)cn1`: the concentration giving a half-maximal response (EC50) in experiment [2] and in experiment [3] was greater than 10 µM each time.

On to `O=C(Nc1ccc2ccccc2n1)c1cnc2cccnc2c1`, for which, in experiment [1], the inhibition at 1 µM was -69%.

`Cc1nc(NC(=O)c2cccc([N+](=O)[O-])c2)ccc1Br`: the inhibition at 1 µM in experiment [1] came out at 88.6%.

As for `Cc1nc(NC(=O)c2ccc(N3CCCC3)c([N+](=O)[O-])c2)ccc1I`, the inhibition at 1 µM in experiment [1] was 44%.

Turning to `Cc1nc(NC(=O)c2cnco2)cnc1Br`, the inhibition at 1 µM in experiment [1] was -21%.

Take `CCOc1ccc(C(=O)Nc2ccc(I)cn2)cc1[N+](=O)[O-]`: the inhibition at 1 µM in experiment [1] turned out to be 69.9%.

As for `O=C(Nc1ccc(-c2ccc(Cl)cc2)cn1)c1cncnc1`, the concentration giving a half-maximal response (EC50) in experiment [2] and in experiment [3] was greater than 10 µM each time.

For the molecule `Cc1nc(NC(=O)c2nccs2)ccc1Cl`, in experiment [1], the inhibition at 1 µM is -28%.

As to `O=C(Nc1ccc(-c2ccccc2)cn1)c1nccnc1-c1ccccc1`, the EC50 in experiment [2] and in experiment [3] was greater than 10 µM throughout.

Take `Cc1nc(NC(=O)c2cc([N+](=O)[O-])ccc2N2CCOCC2)ccc1I`: the inhibition at 1 µM in experiment [1] came to 31.7%.

For `c1ccc(-c2ccc(NCc3cncnc3)nc2)cc1`, the EC50 in experiment [2] and in experiment [3] was greater than 10 µM throughout.

As for `Cc1cc(NC(=O)c2ccc(C)c([N+](=O)[O-])c2)c(C)cc1I`, the inhibition at 1 µM in experiment [1] came out at 46.9%.

Take `O=C(Nc1ncc[nH]1)c1nccs1`: the inhibition at 1 µM in experiment [1] is -67%.

As to `O=C(Nc1ccc(-c2ccncc2)cn1)c1cncnc1`, the half-maximal effective concentration (EC50) in experiment [2] is greater than 10 µM; in experiment [3] it was 4.67 µM.

On to `CNc1ncc(C(=O)Nc2ccc(-c3ccccc3)cn2)cn1`, for which the concentration for a half-maximal effect (EC50) was determined as 0.149 µM in experiment [2] and 0.049 µM in experiment [3].

`Cc1nc(NC(=O)c2cncc([N+](=O)[O-])c2)cnc1Br`: in experiment [1], the inhibition at 1 µM was -26%.

In the case of `Cc1nc(NC(=O)c2cncc([N+](=O)[O-])c2)ccc1Cl`, in experiment [1], the inhibition at 1 µM is -20%.

In the case of `O=C(Cc1cncnc1)Nc1ccc(-c2ccccc2)cn1`, the concentration giving a half-maximal response (EC50) in experiment [2] and in experiment [3] was greater than 10 µM in each case.

In the case of `Cc1cc(NC(=O)c2cccc([N+](=O)[O-])c2)ccc1O`, in experiment [1], the inhibition at 1 µM was determined as 34.6%.

In the case of `O=C(Nc1ccc(-c2ccccc2)cn1)c1cnc2cccnc2c1`, in experiment [1], the inhibition at 1 µM was 181%.

With `Cc1nc(NC(=O)c2ccc(N3CCCCC3)c([N+](=O)[O-])c2)ccc1I`, in experiment [1], the inhibition at 1 µM came to 29.4%.

`Cc1nc(NC(=O)c2nccs2)ccc1I`: the inhibition at 1 µM in experiment [1] is -20%.

Take `O=C(Nc1ccc(-c2ccccc2)cn1)c1cnc(-c2ccco2)nc1`: the EC50 in experiment [2] is greater than 10 µM; in experiment [3], 1.53 µM.

For the molecule `O=C(Nc1cscn1)c1cnco1`, the inhibition at 1 µM in experiment [1] is -54%.

For the molecule `O=C(Nc1ccc2ccccc2n1)c1cnco1`, the inhibition at 1 µM in experiment [1] is -58%.

Take `O=C(Nc1ccc2ccccc2n1)c1cccc(C(F)(F)F)c1`: in experiment [1], the inhibition at 1 µM was -59%.

For the molecule `O=C(Nc1ccc(-c2ccccc2)cn1)c1cnccn1`, the EC50 turned out to be 0.317 µM in experiment [2] and 0.102 µM in experiment [3].

For the molecule `Cc1cc(NC(=O)c2cccc([N+](=O)[O-])c2)ccc1I`, the inhibition at 1 µM in experiment [1] was 53.1%.

As for `O=C(Nc1ccc(-c2ccccc2)cn1)c1cncnc1-c1ccccc1`, the 50% effective concentration (EC50) in experiment [2] and in experiment [3] was greater than 10 µM throughout.

As to `CN(C(=O)c1cnccn1)c1ccc(-c2ccccc2)cn1`, the EC50 in experiment [2] and in experiment [3] was greater than 10 µM each time.

`Cc1ncc(C(=O)Nc2ccc(-c3ccccc3)cn2)cn1`: the half-maximal effective concentration (EC50) is 0.109 µM in experiment [2] and 0.029 µM in experiment [3].

For the molecule `O=C(Nc1ccc(C2CC2)cn1)c1cncnc1`, the EC50 in experiment [2] was determined as 0.776 µM; in experiment [3] it was 0.464 µM.

Consider `O=C(Nc1cscn1)c1cncnc1`, for which the inhibition at 1 µM in experiment [1] is -103%.

Regarding `Cc1nc(NC(=O)c2cncnc2)ccc1Cl`, the inhibition at 1 µM in experiment [1] is -18%.

Turning to `CCOc1ccc(C(=O)Nc2cccc(C)n2)cc1[N+](=O)[O-]`, the inhibition at 1 µM in experiment [1] is 31.7%.

`O=C(Nc1ccc(-c2ccccc2)cn1)c1cncc([N+](=O)[O-])c1`: in experiment [1], the inhibition at 1 µM is -32%.

For the molecule `Cc1cc(NC(=O)c2cccc([N+](=O)[O-])c2C)c(C)cc1I`, in experiment [1], the inhibition at 1 µM came to 36.1%.

Turning to `O=C(Nc1ccc2ccccc2n1)c1cncc([N+](=O)[O-])c1`, the inhibition at 1 µM in experiment [1] was -63%.

Consider `Cc1cc(C)nc(NC(=O)c2cccc([N+](=O)[O-])c2)c1`, for which the inhibition at 1 µM in experiment [1] was found to be 52.5%.

For the molecule `O=C(Nc1ncc[nH]1)c1cccc([N+](=O)[O-])c1`, in experiment [1], the inhibition at 1 µM is -77%.

Take `O=C(Nc1ccccn1)c1cccc([N+](=O)[O-])c1`: in experiment [1], the inhibition at 1 µM turned out to be 45.3%.

As for `Cc1nc(NC(=O)c2cccc(C(F)(F)F)c2)cnc1Br`, the inhibition at 1 µM in experiment [1] is -6%.

Regarding `Cc1nc(NC(=O)c2cnc3cccnc3c2)ccc1I`, the inhibition at 1 µM in experiment [1] turned out to be 33%.

As for `Cc1nc(NC(=O)c2cccc(C(F)(F)F)c2)ccc1Cl`, the inhibition at 1 µM in experiment [1] was -13%.

As for `O=C(Nc1ccc(-c2ccccc2)cn1)c1cccc([N+](=O)[O-])c1`, the inhibition at 1 µM in experiment [1] came to 29%.

`O=C(Nc1ccc(-c2ccccc2)cn1)c1cccc(C(F)(F)F)c1`: the inhibition at 1 µM in experiment [1] is -2%.

For `Cc1nc(NC(=O)c2cnc3cccnc3c2)cnc1Br`, in experiment [1], the inhibition at 1 µM was -25%.

Turning to `O=C(Nc1ncc[nH]1)c1cnco1`, the inhibition at 1 µM in experiment [1] was -50%.

As to `O=C(Nc1cscn1)c1cccc(C(F)(F)F)c1`, the inhibition at 1 µM in experiment [1] was -73%.

Consider `O=C(Nc1ccc2ccccc2n1)c1cncnc1`, for which the inhibition at 1 µM in experiment [1] is -55%.

For the molecule `O=C(Nc1ccc(-c2ccccc2)cn1)c1cnco1`, in experiment [1], the inhibition at 1 µM was -10%.

`Cc1nc(NC(=O)c2nccs2)cnc1Br`: the inhibition at 1 µM in experiment [1] was -36%.

`Cc1nc(NC(=O)c2cnc3cccnc3c2)ccc1Cl`: the inhibition at 1 µM in experiment [1] came to 12%.

The inhibition is the change of the read-out against control, counted positive when it falls. In general, EC50 refers to the concentration that produces a half-maximal response. A low value points to higher potency in that assay.
